Results reported in patent US9845460B2, “Treatment of pluripotent cells” (Janssen Biotech, Inc., priority 2008, dated 2017).
Values joined by “and” are separate entries in the source; they are usually repeats but may differ in a detail not shown here. Equal values may be shown once.

Key:
[1] = system: cells expressing pluripotency markers; assay: Viability (MTS, OD 490 nm) of cells expressing pluripotency markers treated with GSK-3B inhibitors; format: cell-based, human; details: for Raw data (duplicate): optical density at 490 nm (MTS), single wells
Procedure: Derivation and maintenance of cells expressing pluripotency makers was conducted as has been described in Example 2. Cells were grown in DMEM:F12 supplemented with 2% FCS (Invitrogen), 100 ng/ml Activin A, 20 ng/ml Wnt-3a, and 50 ng/ml IGF (R&D Biosystems). Cells were seeded at a density of 10,000 cells/cm^2 on Falcon polystyrene flasks and grown in monolayer culture at 37° C., 5% CO2, low oxygen. After reaching 60-70% confluence, cells were passed by washing the monolayer with PBS and incubating with TrypLE (Invitrogen) for 3-5 minutes to allow detachment and single cell dispersal.
Screening was conducted using test compounds from a proprietary library of small molecules selected for their ability to inhibit GSK-3B enzyme activity. Compounds from this library were made available as 1 mM stocks, in a 96-well plate format in 50 mM HEPES, 30% DMSO. For assay, cells expressing pluripotency markers were washed, counted, and plated in normal culture medium at a seeding density of 20,000 cells per well in 96-well clear-bottom, dark-well plates (Costar). This seeding density was previously determined to yield optimal monolayer formation in overnight culture. On the following day, culture medium was removed, cell monolayers were rinsed three times with PBS, and test compounds were added to the wells in 80 μl aliquots, each diluted into assay medium at a final assay concentration of 10 μM. On day 2 of the assay, medium was removed from each well and replaced with a fresh aliquot of test compounds diluted into assay medium. Assay medium on days 1 and 2 of culture consisted of DMEM:F12 supplemented with 0.5% FCS and 100 ng/ml Activin A. On days 3 and 4 of culture, medium was removed from each well and replaced with DMEM:F12 supplemented with 2% FCS and 100 ng/ml Activin A (no test compound). On day 4 of assay, 15 μl of MTS (Promega) was added to each well and plates were incubated at 37° C. for 1.5 to 4 hours prior to reading optical density at 490 nm on a SpectraMax (Molecular Devices) instrument. Statistical measures consisting of mean, standard deviation, and coefficient of variation were calculated for each duplicate set. Toxicity was calculated for each test well relative to a positive control (wells treated with Activin A and Wnt3a on days 1 and 2 of culture).
A larger proportion of the compounds have minimal or no measurable toxicity in this cell-based assay.
A small panel of select compounds was repeat tested over a narrow dose titration range, again using cells expressing pluripotency markers in a similar assay as described above.

[2] = system: human embryonic stem cells (H9 line); assay: High content screening assay: total cell number (proliferative response); format: cell-based
Procedure: (§1) Maintenance of human embryonic stem cells (H9 line) was conducted as described in Example 1. Colonies of cells were maintained in an undifferentiated, pluripotent state with passage on average every four days. Passage was performed by exposing cell cultures to a solution of collagenase (1 mg/ml; Sigma-Aldrich) for 10 to 30 minutes at 37° C. followed by gentle scraping with a pipette tip to recover cell clusters. Clusters were allowed to sediment by gravity, followed by washing to remove residual collagenase. Cell clusters were split at a 1:3 ratio for routine maintenance culture or a 1:1 ratio for immediate assay. The human embryonic stem cell lines used were maintained at passage numbers less than passage 50 and routinely evaluated for normal karyotypic phenotype and absence of mycoplasma contamination.
Cell clusters used in the assay were evenly resuspended in normal culture medium and plated onto MATRIGEL-coated 96-well Packard VIEWPLATES (PerkinElmer) in volumes of 100 μl/well. MEF conditioned medium supplemented with 8 ng/ml bFGF was used for initial plating and recovery. Daily feeding was conducted by aspirating spent culture medium from each well and replacing with an equal volume of fresh medium. Plates were maintained at 37° C., 5% CO2 in a humidified box throughout the duration of assay.
Screening was conducted using test compounds from a proprietary library of small molecules selected for their ability to inhibit GSK-3B enzyme activity. Compounds from this library were made available as 1 mM stocks, in a 96-well plate format in 50 mM HEPES, 30% DMSO. Screening compounds were tested in triplicate or duplicate sets. Primary screening assays were initiated by aspirating culture medium from each well followed by three washes in PBS to remove residual growth factors and serum. Test volumes of 80 to 100 μl per well were added back containing DMEM:F12 base medium (Invitrogen) supplemented with 0.5% FCS (HyClone) and 100 ng/ml activin A (R&D Biosystems) plus […] test compound. Positive control wells contained the same base medium, substituting 10-20 ng/ml Wnt3a (R&D Biosystems) for the test compound. Negative control wells contained base medium with 0.5% FCS and activin A alone (AA only) or alternatively, 0.5% FCS without activin A or Wnt3a (no treatment). Wells were aspirated and fed again with identical solutions on day 2 of assay. On days 3 and 4, all assay wells were aspirated and converted to DMEM:F12 supplemented with 2% FCS and 100 ng/ml activin A (without test compound or Wnt3a); parallel negative control wells were maintained in DMEM:F12 base medium with 2% FCS and activin A (AA only) or alternatively, 2% FCS without activin A (no treatment). […]

[3] = system: Sox17; assay: High content screening assay: Sox17 protein expression (total intensity); format: cell-based, human
Procedure: as §1
(§2) Cell clusters used in the assay were evenly resuspended in normal culture medium and plated onto MATRIGEL-coated 96-well Packard VIEWPLATES (PerkinElmer) in volumes of 100 μl/well. MEF conditioned medium supplemented with 8 ng/ml bFGF was used for initial plating and recovery. Daily feeding was conducted by aspirating spent culture medium from each well and replacing with an equal volume of fresh medium. Plates were maintained at 37° C., 5% CO2 in a humidified box throughout the duration of assay. […]

[4] = system: HNF-3beta; assay: High content screening assay: HNF-3beta protein expression (total intensity); format: cell-based, human
Procedure: as §1, §2

[5] = system: human embryonic stem cells (H9 or H1 lines); assay: Plate reader assay (MTS, OD490): proliferation of human embryonic stem cells; format: cell-based
Procedure: Maintenance of human embryonic stem cells (H9 or H1 lines) was conducted as described in Example 1. Colonies of cells were maintained in an undifferentiated, pluripotent state with passage on average every four days. Passage was performed by exposing cell cultures to a solution of collagenase (1 mg/ml; Sigma-Aldrich) for 10 to 30 minutes at 37° C. followed by gentle scraping with a pipette tip to recover cell clusters. Clusters were allowed to sediment and washed to remove residual collagenase. Cell clusters were split at a ratio of 1:3 monolayer area for routine culture or a 1:1 ratio for immediate assay. The human embryonis stem cell lines used for these examples were maintained at passage numbers less than 50 and routinely evaluated for normal karyotypic phenotype as well as absence of mycoplasm contamination.
Cell clusters used in assay were evenly resuspended in normal culture medium and plated into MATRIGEL-coated 96-well Packard VIEWPLATES (PerkinElmer) in volumes of 100 μl/well. MEF conditioned medium supplemented with 8 ng/ml bFGF) was used for initial plating and recovery. Daily feeding was conducted by aspirating spent culture medium from each well and replacing with an equal volume of fresh medium. Plates were maintained at 37° C. in a humidified box, 5% CO2 throughout the duration of assay.
Primary screening assays were initiated by aspirating culture medium from each well followed by three washes in PBS to remove residual growth factors and serum. Test volumes of 80-100 μl per well were added back containing DMEM:F12 base medium (Invitrogen) supplemented with 0.5% FCS (HyClone) and 100 ng/ml activin A (R&D Biosystems) and 10 μM test compound. […]
On day 4 of assay, […] of MTS (Promega) was added to each well and plates were incubated at 37° C. for 1.5 to 4 hours. Densitometric readings at OD490 were determined using a Molecular Devices spectrophotometer plate reader. Average readings for replicate sets were calculated along with standard deviation and coefficient of variation. […]

[6] = total intensity normalized to Wnt3a/Activin A positive control

OCCC#Cc1nc(-c2ccc(F)cc2)c(-c2ccncc2)n1CCCc1ccccc1 [RWJ67657]
Average ([1]; MTS viability readout, average of duplicate raw data): 0.644 | Raw data (duplicate), first value ([1]; MTS viability readout, first of duplicate wells): 0.629 | Raw data (duplicate), second value ([1]; MTS viability readout, second of duplicate wells): 0.659 | Average ([1]; cmpd conc 2.5 uM, mean optical density at 490 nm (MTS) of duplicate): 0.7971 | Raw data (duplicate) ([1]; cmpd conc 2.5 uM): 0.8041 and 0.7900 | % Control ([1]; cmpd conc 2.5 uM, viability relative to AA + Wnt3a positive control, MTS day 4): 93.2% | Average ([1]; cmpd conc 5 uM, mean optical density at 490 nm (MTS) of duplicate): 0.8183 | Raw data (duplicate) ([1]; cmpd conc 5 uM): 0.8047 and 0.8319 | % Control ([1]; cmpd conc 5 uM, viability relative to AA + Wnt3a positive control, MTS day 4): 96.2% | Average ([1]; cmpd conc 10 uM, mean optical density at 490 nm (MTS) of duplicate): 0.6052 | Raw data (duplicate) ([1]; cmpd conc 10 uM): 0.6195 and 0.5908 | % Control ([1]; cmpd conc 10 uM, viability relative to AA + Wnt3a positive control, MTS day 4): 66.5% | % Control ([1]; viability as % of control): 77.7% | Proliferative Response Total cells (HNF-3b Expression set) ([2]; total cell number in wells stained for HNF-3b): 6058 | Proliferative Response Total cells (SOX-17 Expression set) ([2]; total cell number in wells stained for SOX-17): 6376 | Proliferative Response Fold over Wnt 3a/AA control (HNF-3b Expression set) ([2]; total cells normalized to Wnt3a/Activin A positive control, wells stained for HNF-3b): 0.3852 Fold over Wnt 3a/AA control | Proliferative Response Fold over Wnt 3a/AA control (SOX-17 Expression set) ([2]; total cells normalized to Wnt3a/Activin A positive control, wells stained for SOX-17): 0.4162 Fold over Wnt 3a/AA control | SOX-17 Expression Total Intensity ([3]; total intensity): 324450000 | SOX-17 Expression Fold over Wnt 3a/AA control [3, 6]: 0.3336 Fold over Wnt 3a/AA control | HNF-3b Expression Total Intensity ([4]; total intensity): 269025000 | HNF-3b Expression Fold over Wnt 3a/AA control [4, 6]: 0.2428 Fold over Wnt 3a/AA control | % Control Value ([5]; 10 μM test compound, MTS OD490 on day 4, relative to Activin A/Wnt3a positive control): 84.7% | Average (of Raw Data) ([5]; mean of replicate raw plate-reader readings (MTS, OD490), proliferation of human embryonic stem cells): 1.2242 | % Control ([5]; relative to the AA/Wnt3a/DMSO positive control of the same plate (= 100.0)): 84.7%

B1: AA only: control wells with base medium, FCS and activin A alone (protein, UniProt P08476 311-426, looked up)
Inhibin beta A chain: GLECDGKVNICCKKQFFVSFKDIGWNDWIIAPSGYHANYCEGECPSHIAGTSGSSLSFHSTVINHYRMRGHSPFANLKSCCVPTKLRPMSMLYYDDGQNIIKKDIQNMIVEECGCS
Average ([1]; control wells without test compound, mean optical density at 490 nm (MTS)): 0.8889 and 0.7861 | Raw data (duplicate) ([1]; control wells without test compound): 0.8732 and 0.9046 and 0.7674 and 0.8047 | % Control ([1]; control wells without test compound, relative to AA + Wnt3a): 106.0% and 98.3%
